Measurements from US8003673B2, “Daptomycin for the treatment of biofilm and catheter salvage” (Cubist Pharmaceuticals, Inc., priority 2006, dated 2011).
≈ marks a conversion by molar mass, not a printed value. Entries after “also recorded” stand apart in the source; their conditions may differ. Read-outs that look alike come from different tables or passages of the source.

Assays:
[1] = system: Methicillin-resistant coagulate negative staphylococci biofilms; assay type: cell-based, coagulase negative staphylococci (S. epidermidis isolates)
Method: Methicillin-resistant coagulate negative staphylococci biofilms were grown to approximately 10^5 cells per cm^2 for 24 h in glass test tubes, planktonic bacteria rinsed away and Mueller Hinton broth (calcium supplemented to […] in daptomycin tests) containing antimicrobials added to the tubes. The concentrations of antimicrobials studied were two-fold dilutions from 64 to 1 μg/mL of daptomycin, rifampin, or daptomycin plus 0.5 μg/mL rifampin. The tests were incubated overnight in room air at 37° C. The cell density in rinsed biofilms was determined prior to addition of antimicrobials and after incubation. The change in bacterial density after incubation with antimicrobials was determined, and the results were expressed as the lowest antimicrobial concentration that killed 99.90% of biofilm bacteria. Bacteria recovered from tests containing rifampin were tested for rifampin susceptibility.

[2] = system: S. epidermidis CVC infection; assay: Rat model of CVC infection, infusion therapy; assay type: in vivo, Sprague Dawley rats; settings: for Catheter infection by CVC blood draw after infusion therapy: 5 mg/ml in line, daptomycin once a day, vancomycin twice a day, after three days of therapy (day 8); for Metastatic infection after infusion therapy (vena cava, heart, lung, kidney, spleen): same groups as FIG. 3
Method: (§1) Male Sprague Dawley rats (˜250 g) with catheterized jugular veins were used in these studies. Rat catheters (polyurethane tubing, 0.025 inch internal diameter) were inoculated with a culture of S. epidermidis at 5×10^8 CFU/ml. The total volume of the catheters is approximately 40 μl. The catheters were flushed with heparinized saline 1 hour after inoculation, and were maintained by daily flushes. The catheter infection was monitored by daily blood draws that were plated and quantified.
(§2) Daptomycin, vancomycin and nafcillin were used as therapy. Two different dosing regimes were used. The first mimicked clinical infusion with daptomycin administered at 5 mg/ml in the line for 30 minutes once daily compared to vancomycin at 5 mg/ml for 60 minutes twice daily, for a total of 4 days. The second regime simulated antibiotic lock therapy with an 18 hour exposure of daptomycin or vancomycin at 5 mg/ml, followed by a heparinized saline flush, daily for 3 days. In both regimes, the animals received parenteral doses of the appropriate antibiotic by subcutaneous route to simulate total body exposure (as it was not possible to administer the correct dosages through the line at 5 mg/ml). Most trials involved a therapy period, followed by a period of no antibiotic therapy to monitor for resurgence of infection due to surviving bacterial colonies.
(§3) Infection levels were monitored by daily blood draws through the infected catheter. For the terminal harvest, a final blood draw was taken and then the flushed catheter was harvested, and analyzed for surviving bacteria by sonication, vortexing, and plating. The vena cava, heart, lung, kidney, and spleen were assayed as potential metastatic infection sites by aseptic harvest, homogenization, and plating.

[3] = system: S. epidermidis CVC infection; assay: Rat model of CVC infection, antibiotic lock therapy; assay type: in vivo, Sprague Dawley rats; settings: for Overall outcome of lock therapy: 18 hour lock at 5 mg/ml; for Animals with positive blood draws after lock therapy / Animals with positive catheter at harvest after lock therapy: following 7 days of antibiotic-free heparin flushes; for Metastatic infection after lock therapy: lock therapy combined with SC dosing
Method: as §1, §2, §3

Staphylococcus aureus = assay: Susceptibility (MIC) of S. aureus #42 control strain; assay type: cell-based
[4] = system: S. epidermidis biofilm in catheter; assay: Histopathology of CVC biofilms in the rat model; assay type: in vivo, Sprague Dawley rats; settings: for Biofilm formation and Gram positive bacterial colonies in the biofilm (histopathology summary): 5 mg/mL via the catheter; for Bacterial colonies in biofilm, histopathology of single rats: after 4 days of infusion therapy, rat A12 daptomycin 33 mg/kg SC + 5 mg/mL via catheter, rat A17 vancomycin 50 mg/kg SC + 5 mg/mL via catheter
Method: The nature of the CVC infection and resulting biofilms in the catheter was determined through histopathology. The data on histopathology can be summarized as follows: • 1. Eight days after implantation, the rat central venous catheter model develops focal biofilms with or without bacterial colonies in the catheter's inner luminal surfaces. At this time point, the thickness of the biofilm varies between 7 to 15 microns. • 2. After 12 days of implantation, the fibrils making up the inner luminal surface biofilm appear to be denser and more organized, and the biofilm layer is slightly thicker (up to 25 microns). • 3. In the saline negative controls, bacterial colonies were present in the biofilm, and identified as Gram positive cocci. • 4. […] However, cocci-like, Gram positive individual round structures were noted. • 5.
At day 12 post infection in untreated rats, as in the previous time point, biofilms tended to be present in the inner luminal surfaces of the indwelling catheter, 5-25 microns thick, and contained variable numbers of basophilic granular bacterial colonies (confirmed by Gram stain). However, in contrast to the previous time point, focal portions of the luminal protein cast appeared to be more organized and contained numerous bluish bacterial colonies. See FIG. 10 showing the biofilm appearance at day 12 post infection. […] Rat A1 served as negative control and received saline (2 mL/kg SC+saline via catheter); Rat A6 received low-dose daptomycin (10 mg/kg SC+5 mg/mL via catheter); Rat A12 received high-dose daptomycin (33 mg/kg SC+5 mg/mL via catheter); and Rat A17 received vancomycin (50 mg/kg SC+5 mg/mL via catheter). Tissues from the four rats were evaluated. FIG. 11, below, is a composite of the findings for all four rats.
FIG. 11 provides histopathological evidence of daptomycin and vancomycin efficacy after 4 days of infusion therapy. In FIG. 11, from left to right, the images illustrate the CVC tissues from rats A1, A6, A12, and A17, respectively. The upper images are all H&E-stained and the bottom images are all Gram-stained. […] These round structures surrounded or encircled cell membranes.

[5] = system: Staphylococcus epidermidis; assay: Susceptibility (MIC) of S. epidermidis isolates used in CVC studies
[6] = system: stationary phase S. epidermidis; assay: In vitro model of stationary phase bacteria (kill kinetics); assay type: cell-based; settings: for Cidal activity against stationary phase culture: through 24 hours; for Cidal activity against stationary phase S. epidermidis (conclusion): in vitro, medium not stated
Method: The impact of cidal activity of antibacterial compounds on stationary phase bacteria was assayed. Cultures of S. epidermidis and S. aureus were grown to stationary phase (>1×10^9 and centrifuged, washed 2×, and then resuspended into saline or lactated Ringer's solution. The cultures were treated with either daptomycin or vancomycin at 5 mg/ml and the decrease in viable bacteria were measured through 24 hours to determine the kill kinetics.

[7] = Antimicrobial Concentration ≧64
[8] = strain 119 Staphylococcus epidermidis
[9] = strain 1315 Staphylococcus epidermidis
[10] = strain 1316 Staphylococcus epidermidis
[11] = strain 1317 Staphylococcus epidermidis
[12] = strain 1318 Staphylococcus epidermidis
[13] = strain 1319 Staphylococcus epidermidis
[14] = strain 1320 Staphylococcus epidermidis
[15] = day 15, after 6 days of antibiotic-free heparin flushes following infusion therapy

SMILES: CCCCCCCCCC(=O)N[C@@H](Cc1c[nH]c2ccccc12)C(=O)N[C@H](CC(N)=O)C(=O)N[C@@H](CC(=O)O)C(=O)N[C@@H]1C(=O)NCC(=O)N[C@@H](CCCN)C(=O)N[C@@H](CC(=O)O)C(=O)N[C@H](C)C(=O)N[C@@H](CC(=O)O)C(=O)NCC(=O)N[C@H](CO)C(=O)N[C@@H]([C@H](C)CC(=O)O)C(=O)N[C@@H](CC(=O)c2ccccc2N)C(=O)O[C@@H]1C [Daptomycin]
- # of isolates (lowest concentration that killed 99.90% of biofilm bacteria) ([1]; Antimicrobial Concentration 1): 0
- # of isolates (lowest concentration that killed 99.90% of biofilm bacteria) ([1]; Antimicrobial Concentration 2): 5
- Mean log10 reduction ([1]; Antimicrobial Concentration 2): 3.3 log10
- # of isolates (lowest concentration that killed 99.90% of biofilm bacteria) ([1]; Antimicrobial Concentration 4): 4
- Mean log10 reduction ([1]; Antimicrobial Concentration 4): 3.2 log10
- # of isolates (lowest concentration that killed 99.90% of biofilm bacteria) ([1]; Antimicrobial Concentration 8): 5
- Mean log10 reduction ([1]; Antimicrobial Concentration 8): 3.8 log10
- # of isolates (lowest concentration that killed 99.90% of biofilm bacteria) ([1]; Antimicrobial Concentration 16): 1
- Mean log10 reduction ([1]; Antimicrobial Concentration 16): 3.5 log10
- # of isolates (lowest concentration that killed 99.90% of biofilm bacteria) ([1]; Antimicrobial Concentration 32): 2
- Mean log10 reduction ([1]; Antimicrobial Concentration 32): 3.6 log10
- # of isolates (lowest concentration that killed 99.90% of biofilm bacteria) [1, 7]: 10
- Mean log10 reduction [1, 7]: 2.0 log10
- Emergence of rifampin resistance in biofilm isolates ([1]; after exposure overnight): did not prevent emergence of rifampin resistance
- Cidal concentration in biofilm relative to comparator ([1]; comparison with rifampin): cidal at lower concentrations than was rifampin
- Isolates with bactericidal activity in biofilm ([1]; with ≦32 μg/mL daptomycin): 27 of 30
- Catheter infection by CVC blood draw after infusion therapy [2]: reduced most catheter infections to a non-detectable level
- Overall outcome of infusion therapy ([2]; 30 minute infusion at 5 mg/ml): temporarily reduced catheter infections to a non-detectable level, but infection resurgence was common; also recorded: reduced biofilm to non-detectable level, but a resurgence of infection was common
- Metastatic infection after infusion therapy (vena cava, heart, lung, kidney, spleen) [2]: very little metastatic infection at any site
- Overall outcome of lock therapy [3]: curative and prevented resurgence; also recorded: reduced biofilm to a non-detectable level and largely prevented resurgence of infection
- Animals with positive blood draws after lock therapy [3]: 0/6
- Animals with positive catheter at harvest after lock therapy [3]: 1/6
- Metastatic infection after lock therapy [3]: cleared and prevented reemergence of metastatic infection
- MIC (Staphylococcus aureus; strain 42 Staphylococcus aureus, read-out: MIC): 0.5 µg/mL (≈ 0.309 µM)
- Biofilm formation and Gram positive bacterial colonies in the biofilm (histopathology summary) [4]: did not prevent biofilm formation, but prevented the growth and presence of Gram positive bacterial colonies in the biofilm
- Bacterial colonies in biofilm, histopathology of single rats [4]: not interpreted to be bacterial colonies
- MIC [5, 8]: 0.25 µg/mL (≈ 0.154 µM)
- MIC [5, 9]: 0.5 µg/mL (≈ 0.309 µM)
- MIC [5, 10]: 0.5 µg/mL (≈ 0.309 µM)
- MIC [5, 11]: 1 µg/mL (≈ 0.617 µM)
- MIC [5, 12]: 1 µg/mL (≈ 0.617 µM)
- MIC [5, 13]: 1 µg/mL (≈ 0.617 µM)
- MIC [5, 14]: 0.5 µg/mL (≈ 0.309 µM)
- Cidal activity against stationary phase culture ([6]; 5 mg/ml in lactated Ringer's): rapidly cidal; also recorded: cidal in lactated Ringer's
- Cidal activity against stationary phase culture ([6]; 5 mg/ml in saline): neither daptomycin nor vancomycin had cidal activity
- Cidal activity against stationary phase S. epidermidis (conclusion) [6]: cidal

SMILES: CN[C@H](CC(C)C)C(=O)N[C@H]1C(=O)N[C@@H](CC(N)=O)C(=O)N[C@H]2C(=O)N[C@H]3C(=O)N[C@H](C(=O)N[C@H](C(=O)O)c4cc(O)cc(O)c4-c4cc3ccc4O)[C@H](O)c3ccc(c(Cl)c3)Oc3cc2cc(c3O[C@@H]2O[C@H](CO)[C@@H](O)[C@H](O)[C@H]2O[C@H]2C[C@](C)(N)[C@H](O)[C@H](C)O2)Oc2ccc(cc2Cl)[C@H]1O [Vancomycin]
- Catheter infection by CVC blood draw after infusion therapy [2]: reduced most catheter infections to a non-detectable level
- Relative efficacy in the rat CVC model ([2]; comparison between treatments): equally effective (to daptomycin in Ringer's)
- Animals with harvested catheter positive for S. epidermidis CFUs [2, 15]: 2/6
- Animals with positive blood draws through the catheter [2, 15]: 0/6
- Clearing of blood draw cultures during infusion therapy ([2]; doses days 5-8, daptomycin 30 minute once a day, vancomycin 60 min twice a day): negative blood draw cultures by day 8
- Metastatic infection after infusion therapy (vena cava, heart, lung, kidney, spleen) [2]: very little metastatic infection at any site
- Overall outcome of lock therapy [3]: curative in lock therapy
- Animals with positive blood draws after lock therapy [3]: None
- Animals with positive catheter at harvest after lock therapy [3]: None
- Metastatic infection after lock therapy [3]: cleared and prevented reemergence of metastatic infection
- MIC (Staphylococcus aureus; Staphylococcus aureus): 0.25 µg/mL (≈ 0.173 µM)
- Biofilm formation and Gram positive bacterial colonies in the biofilm (histopathology summary) [4]: did not prevent biofilm formation, or completely the growth and presence of Gram positive bacterial colonies in the biofilm
- Bacterial colonies in biofilm, histopathology of single rats [4]: Biofilms containing true bacterial colonies
- MIC [5, 8]: 1 µg/mL (≈ 0.69 µM)
- MIC [5, 9]: 1 µg/mL (≈ 0.69 µM)
- MIC [5, 10]: 1 µg/mL (≈ 0.69 µM)
- MIC [5, 11]: 1 µg/mL (≈ 0.69 µM)
- MIC [5, 12]: 2 µg/mL (≈ 1.38 µM)
- MIC [5, 13]: 1 µg/mL (≈ 0.69 µM)
- MIC [5, 14]: 1 µg/mL (≈ 0.69 µM)
- Cidal activity against stationary phase culture ([6]; 5 mg/ml in lactated Ringer's): no cidal activity
- Cidal activity against stationary phase culture ([6]; 5 mg/ml in lactated Ringer's, listed as vancomycin): not cidal
- Cidal activity against stationary phase culture ([6]; 5 mg/ml in saline): neither daptomycin nor vancomycin had cidal activity
- Cidal activity against stationary phase S. epidermidis (conclusion) [6]: not cidal
